Measurements reported in patent publication US20140024677A1, “METHODS FOR INDUCING MITOCHONDRIAL BIOGENESIS” (MUSC Foundation For Research Development, priority 2012, published 2014).

Columns and labels:
gastrocnemius muscle = test: Dexamethasone-induced muscle wasting, gastrocnemius weight; type: in vivo, Mice
Description: On the 8th day, gastrocnemius muscle was isolated from both the hind limbs and weighed. The average weights were normalized to initial body weights.

renal mitochondria = conditions: treatment after I/R injury
Description: Mitochondrial function was measured ex vivo by isolating renal mitochondria and determining state 4 (basal respiration) and state 3 (ADP-stimulated respiratory rate).

[1] = test system: KIM-1, PGC-1α, COX I, NDUFB8 in renal cortical tissue
Description: I/R model of AKI. Eight-week-old male C57BL6 mice weighing 25-30 g were subjected to bilateral renal pedicle ligation. Briefly, renal artery and vein were isolated and blood flow was occluded with a vascular clamp for 20 min, and mice were euthanized at 24, 72, or 144 h after procedure, at which time kidneys were harvested for molecular analysis. All procedures involving animals were performed with approval from the IACUC in accordance with the NIH Guide for the Care and Use of Laboratory Animals.
Immunoblot analysis. Renal cortical tissue was lysed in RIPA buffer containing cocktail protease and phosphatase inhibitors. Total protein content was measured by the BCA assay. Fifty micrograms of total protein were loaded into SDS-PAGE gels and immunoblots were performed as previously described (26). Antibodies used for immunoblot studies were obtained from the following vendors: caspase 3 (Enzo Life Sciences), GAPDH (Fitzgerald Antibodies), COX I and NDUFB8 (MitoSciences), KIM-1 (R&D Systems), and PGC-1α (Calbiochem).
mRNA analysis. Total RNA was isolated from renal cortical tissue with TRIzol (Invitrogen) according to the manufacturer's protocol and cDNA was synthesized using RevertAid First Strand cDNA Synthesis Kit (Fermentas). PCR reactions were performed using 3:1 diluted cDNA product. Primers sequences for NDUFB8 and COX I were used.
Previous in vivo and in vitro research has identified depletion of mitochondrial function and abundance in models of hypoxia correlated with dysfunctional kidney function.

mtDNA in kidney cortex = test: mtDNA copy number in kidney of dosed mice (D-loop/apoB); type: in vivo, C57BL/6 mice; conditions: 72 h after daily repeated i.p. injection with 100 mg/kg (so in the source)
Description: (§1) Mitochondrial DNA Content.

I/R induced AKI = conditions: after five doses started 24 h after I/R injury; 144 h
Description: Assessing renal function. For mice, blood was collected by retro-orbital eye bleed 24 h and 144 h. Creatinine levels were measured using a Quantichrom Creatinine Assay Kit (BioAssay Systems, Hayward, Calif.) according to the manufacturer's protocol.

mtDNA in heart = test: mtDNA copy number in heart of dosed mice (D-loop/apoB); type: in vivo, C57BL/6 mice
Description: as §1

[2] = test system: adult feline cardiomyocytes (AFC); type: cell-based; conditions: 24 hr, formoterol 10 and 30 nM
Description: Respirometry assay. […] Each experimental plate was treated with vehicle controls (DMSO<0.5%), a positive control (SRT1720, 10 μM), blank controls, and the appropriate concentration of the compound of interest. The XF-96 protocol consists of five measurements of basal OCR (1 measurement/1.5 min), injection of FCCP (0.5 μM), and three measurements of uncoupled OCR (1 measurement/1.5 min). […] Quality control evaluations considered the basal and uncoupled rates of the vehicle control, positive control, and variances between duplicate treatment wells. […] This threshold is ≧1 S.D. above the historic mean for the vehicle control.

Compound: (3R)-N-methyl-3-(2-methylphenoxy)-3-phenylpropan-1-amine [Tomoxetine]
- Gastrocnemius muscle weight in DEX-treated mice (gastrocnemius muscle; co-injected with dexamethasone 25 mg/kg i.p. for 7 days, formoterol 100/300 ug/Kg i.p., atomoxetine 100 ug/kg i.p.): restored atrophied muscle back to normal

Compound: C[C@@H]1C[C@H]2[C@@H]3CCC4=CC(=O)C=C[C@]4(C)[C@@]3(F)[C@@H](O)C[C@]2(C)[C@@]1(O)C(=O)CO [DEX, dexamethasone]
- Decrease in gastrocnemius wt. compared to saline controls (gastrocnemius muscle; 25 mg/kg i.p., 7 days, weight normalized to initial body weight): 15%

Compound: COc1ccc(C[C@@H](C)NC[C@H](O)c2ccc(O)c(NC=O)c2)cc1 (racemic) [formoterol, rac-(R,R)—N-[2-hydroxy-5-[1-hydroxy-2-[1-(4-methoxyphenyl)propan-2-ylamino]ethyl]phenyl]formamide]
- Mitochondrial respiration of isolated renal mitochondria (basal and state 3) (renal mitochondria): completely restore
- KIM-1 protein expression ([1]; 144 h post I/R injury): to the level of sham vehicle
- Gene transcription and protein translation in sham animals ([1]; sham animals exposed to formoterol vs control animals): not significantly altered
- COX I gene expression ([1]; treatment after I/R, 144 h): restored with treatment of formoterol after I/R, but not significantly different than the I/R vehicle group
- COX I protein expression ([1]; treatment after I/R, 144 h): significantly above the I/R vehicle group
- NDUFB8 gene transcription ([1]; treatment after I/R, 144 h): did not restore
- NDUFB8 protein expression ([1]; treatment after I/R, 144 h): significantly above the I/R vehicle group
- Total PGC-1α gene expression ([1]; treatment from 24 h post I/R injury, 144 h): significantly above the I/R vehicle group, but not fully restored to control levels
- mtDNA copy number increase, kidney cortex (mtDNA in kidney cortex): 2 fold
- Serum creatinine (SCr) (I/R induced AKI): 0.29 mg/dL
- mtDNA copy number increase (FIG. 3C, heart figure) (mtDNA in heart; 24 h, i.p. 100 mg/kg (so in the source)): 2 fold
- mtDNA copy number increase (FIG. 3C, heart figure) (mtDNA in heart; 72 h, daily repeated i.p. 100 mg/kg (so in the source)): 2.5 fold

Compound: CC(C)NC[C@H](O)c1ccc(O)c(O)c1.Cl [isoproterenol, (R)-3,4-Dihydroxy-α-(isopropylaminomethyl)benzyl alcohol hydrochloride]
- Change in FCCP-uncoupled OCR [2]: did not have any significant effects

Compound: C[C@H](Cc1ccc(OCC(=O)O)cc1)NC[C@H](O)c1cccc(Cl)c1.O.[Na] (relative stereo) [BRL 37344, (±)-(R*,R*)-[4-[2-[[2-(3-Chlorophenyl)-2-hydroxyethyl]amino]propyl]phenoxy]acetic acid sodium hydrate]
- Change in FCCP-uncoupled OCR [2]: did not have any significant effects
